From patent publication US5798092A, “Derivatized DTPA complexes pharmaceutical agents containing these compounds, their use, and processes for their production” (Schering Aktiengesellschaft, priority 1989, dated 1998)
Each block holds one compound with its values, some of them ahead of it.

Experiments:
rats [1] = assay: in vivo MRI in rats, T1-weighted spin echo, liver/stomach/osteogenic sarcoma; design: species or system rat (female, Lew/Mol); details: 0.1 mmol Gd/kg i.v.; for enhancement of the stomach: ranking among the three compounds
Source text: The test animals were female rats of the strain Lew/Mol weighing 160-180 g. Prior to imaging, the animals were anesthetized ("Rompun"+"Ketavet") and provided with a catheter in the caudel vein to administer the contrast medium. Imaging took place in an MRI experimental device by General Electric (field strength 2 tesla). First of all, the images (7, 9, 11) were made without contrast medium with a T1 -weighted spin echo sequence (TR=400 msec, TE=20 msec, axial section plane, layer thickness 3 mm). The liver appears in each case with the normal signal intensity; the stomach is darker in tendency than the liver. […] This is due to feed residues, the feed containing manganese in relatively high concentrations (at the time of the test, the animals had been fasting for 6 hours). Animal 3 had been implanted with an osteogenic sarcoma three weeks previously; this sarcoma was of equal contrast in the blank image and could not be defined. The administration of contrast medium took place via the venous catheter with a dose of 0.1 mmol Gd/kg (concentration of the solutions 0.05 mmol Gd/ml in 0.9% NaCl) for all 3 compounds.

[2] = T1 relaxation (relaxivity) in plasma; format: physicochemical
Source text: (§1) T1 relaxation (1/mmol·sec) is
(§2) The T1 relaxation (1/mmol·sec) is
(§3) The T1 relaxation (1/mmol·sec) amounts to
(§4) The T1 relaxation (1mmol·sec) is […]

[3] = T1 relaxation (relaxivity) in water; format: physicochemical
Source text: as §1, §2, §3, §4

rats [4] = details: at this point in time after administration; no own data shown; cited from earlier work
rats [5] = assay: in vivo NMR imaging in rat with Brown Pearce tumor (spin echo, 2 tesla); design: species or system rat (male hairless, Lew/Mol); details: 0.06 mmol/kg i.v.
Source text: Spin echo scans were made with the NMR tomograph (CSI 2 T) at 2 tesla (TR time of 400 ms and TE time of 20 ms).
The contrast medium was administrated intravenously into a caudal vein of a male hairless rat (Lew/Mol) weighing 190 g, in a dose of 0.06 mmol/kg.

Compound: CCCCOc1ccc(CC(CN(CCN(CC(=O)[O-])CC(=O)[O-])CC(=O)[O-])N(CC(=O)[O-])CC(=O)[O-])cc1.[Gd+3].[Na+].[Na+] (centres unmarked) [Example 9(c), Disodium Salt of the Gadolinium Complex of 3,6,9-Triaza-3,6,9-tris(carboxymethyl)-4-(4-butoxybenzyl)undecanedioic Acid]
enhancement of the liver (rats [1]; after 60 minutes): marked enhancement of the liver
T1 relaxation ([2]; unit printed without slash): 14.20±0.98 1mmol·sec
T1 relaxation ([3]; unit printed without slash): 5.80±0.26 1mmol·sec

Compound: CNC[C@H](O)[C@@H](O)[C@H](O)[C@H](O)CO.CNC[C@H](O)[C@@H](O)[C@H](O)[C@H](O)CO.O=C([O-])CN(CCN(CC(=O)[O-])CC(=O)O)CCN(CC(=O)[O-])CC(=O)O.[Gd+3] [Magnevist, dimeglumine salt of Gd DTPA [gadolinium(III)complex of diethylenetriaminepentaacetic acid]]
enhancement of the liver (comparison) (rats [4]): cannot be observed

Compound: COc1ccc(CC(CN(CCN(CC(=O)[O-])CC(=O)[O-])CC(=O)[O-])N(CC(=O)[O-])CC(=O)[O-])cc1.[Gd+3].[Na+].[Na+] (centres unmarked) [Example 1(c) disodium salt, Gadolinium Complex of 3,6,9-Triaza-3,6,9-tris-(carboxymethyl)-4-(4-methoxybenzyl)undecanedioic Acid]
T1 relaxation [2]: 6.89 ± 0.17 mmol⁻¹ s⁻¹
increase in contrast in the stomach (rats [5]; 45 minutes after injection): strong increase in contrast
contrasting of the intestine (rats [5]; 60 minutes after injection): contrasting of the intestine can likewise be observed
contrasting of the renal pelvis (rats [5]; 60 minutes after injection): striking
visualization of the stomach (rats [5]; 60 minutes after injection): good visualization
visualization of the urinary bladder (rats [5]; 60 minutes after injection): good visualization
visualization of the tumor (rats [5]; 60 minutes after injection, Brown Pearce tumor in the thigh): good visualization
contrasting of the renal pelvis (rats [5]; 65 minutes after injection, somewhat different layer): even more improved
contrast enhancement in the zone of the liver (rats [5]; 180 minutes after injection, axial scan): contrast enhancement is likewise clearly recognizable
contrast enhancement in the urinary bladder (rats [5]; one minute after administration): first enhancement is already apparent
T1 relaxation [3]: 4.54 ± 0.13 mmol⁻¹ s⁻¹

Compound: Gadolinium Complex of 3,6,9-Triaza-3,6,9-tris-(carboxymethyl)-4-[4-(4-methoxybenzyloxy)benzyl]-undecanedioic Acid [Example 3(c)]
T1 relaxation [2]: 6.99 ± 0.13 mmol⁻¹ s⁻¹
T1 relaxation [3]: 4.23 ± 0.16 mmol⁻¹ s⁻¹

Further lines, with some results ahead:

T1 relaxation [2]: 16.35 ± 1.01 mmol⁻¹ s⁻¹
T1 relaxation [3]: 5.81 ± 0.11 mmol⁻¹ s⁻¹
Compound: O=C([O-])CN(CCN(CC(=O)[O-])CC(Cc1ccc(OCc2ccccc2)cc1)N(CC(=O)[O-])CC(=O)[O-])CC(=O)[O-].[Gd+3].[Na+].[Na+] (centres unmarked) [Example 10(c), Disodium Salt of the Gadolinium Complex of 3,6,9-Triaza-3,6,9-tris(carboxymethyl)-4-(4-benzyloxybenzyl)undecanedioic Acid]
enhancement of the liver (rats [1]; after 60 minutes): marked enhancement of the liver
visibility of the tumor (rats [1]; animal 3, osteogenic sarcoma implanted three weeks previously, 60 minutes): clearly visible
absorption of the contrast medium by the tumor (rats [1]; animal 3, osteogenic sarcoma, 60 minutes): not absorbed the contrast medium at all, or only to a lesser proportion
enhancement of the stomach (rats [1]): most strongly

T1 relaxation [2]: 7.10 ± 0.08 mmol⁻¹ s⁻¹
T1 relaxation [3]: 5.00 ± 0.01 mmol⁻¹ s⁻¹
Compound: Gadolinium Complex of 3,6,9-Triaza-3,6,9-tris-(carboxymethyl)-4-(4-carboxymethoxybenzyl)-undecanedioic Acid [Example 6(c)]

T1 relaxation [2]: 6.31 ± 0.15 mmol⁻¹ s⁻¹
T1 relaxation [3]: 4.39 ± 0.12 mmol⁻¹ s⁻¹
Compound: Gadolinium Complex of 3,6,9-Triaza-3,6,9-tris-(carboxymethyl)-4-benzyloxymethylundecanedioic Acid [Example 5(c)]

T1 relaxation [2]: 8.69 ± 0.53 mmol⁻¹ s⁻¹
T1 relaxation [3]: 5.33 ± 0.13 mmol⁻¹ s⁻¹
Compound: CCOc1ccc(CC(CN(CCN(CC(=O)[O-])CC(=O)[O-])CC(=O)[O-])N(CC(=O)[O-])CC(=O)[O-])cc1.[Gd+3].[Na+].[Na+] (centres unmarked) [Example 8(c), Disodium Salt of the Gadolinium Complex of 3,6,9-Triaza-3,6,9-tris(carboxymethyl)-4-(4-ethoxybenzyl)undecanedioic Acid]
enhancement of the liver (rats [1]; after 90 minutes): marked enhancement of the liver
enhancement of the stomach (rats [1]): least

T1 relaxation [2]: 6.89 ± 0.17 mmol⁻¹ s⁻¹
T1 relaxation [3]: 4.54 ± 0.13 mmol⁻¹ s⁻¹
Compound: Gadolinium Complex of 3,6,9-Triaza-3,6,9-tris-(carboxymethyl)-4-benzylundecanedioic Acid [Example 4(d)]

T1 relaxation [2]: 6.61 ± 0.18 mmol⁻¹ s⁻¹
T1 relaxation [3]: 4.17 ± 0.14 mmol⁻¹ s⁻¹
Compound: Gadolinium Complex of 3,6,9-Triaza-3,6,9-tris-(carboxymethyl)-5-(4-methoxybenzyl)undecanedioic Acid [Example 2(c)]
